Test results as given in ChEMBL document CHEMBL1201862, “PubChem BioAssay data set” (2004).
The source made the active and inactive calls.

Columns and labels:
[1] = biological target: T1, Short transient receptor potential channel 4 (Mus musculus, UniProt Q9QUQ5); experiment: calcium entry via TRPC4 opening agents – cell-based, HEK293 TRPC4/mu-opioid, Fluo-4 calcium, dose response (AID 434937); assay type: functional
T1 sequence (Q9QUQ5 whole entry): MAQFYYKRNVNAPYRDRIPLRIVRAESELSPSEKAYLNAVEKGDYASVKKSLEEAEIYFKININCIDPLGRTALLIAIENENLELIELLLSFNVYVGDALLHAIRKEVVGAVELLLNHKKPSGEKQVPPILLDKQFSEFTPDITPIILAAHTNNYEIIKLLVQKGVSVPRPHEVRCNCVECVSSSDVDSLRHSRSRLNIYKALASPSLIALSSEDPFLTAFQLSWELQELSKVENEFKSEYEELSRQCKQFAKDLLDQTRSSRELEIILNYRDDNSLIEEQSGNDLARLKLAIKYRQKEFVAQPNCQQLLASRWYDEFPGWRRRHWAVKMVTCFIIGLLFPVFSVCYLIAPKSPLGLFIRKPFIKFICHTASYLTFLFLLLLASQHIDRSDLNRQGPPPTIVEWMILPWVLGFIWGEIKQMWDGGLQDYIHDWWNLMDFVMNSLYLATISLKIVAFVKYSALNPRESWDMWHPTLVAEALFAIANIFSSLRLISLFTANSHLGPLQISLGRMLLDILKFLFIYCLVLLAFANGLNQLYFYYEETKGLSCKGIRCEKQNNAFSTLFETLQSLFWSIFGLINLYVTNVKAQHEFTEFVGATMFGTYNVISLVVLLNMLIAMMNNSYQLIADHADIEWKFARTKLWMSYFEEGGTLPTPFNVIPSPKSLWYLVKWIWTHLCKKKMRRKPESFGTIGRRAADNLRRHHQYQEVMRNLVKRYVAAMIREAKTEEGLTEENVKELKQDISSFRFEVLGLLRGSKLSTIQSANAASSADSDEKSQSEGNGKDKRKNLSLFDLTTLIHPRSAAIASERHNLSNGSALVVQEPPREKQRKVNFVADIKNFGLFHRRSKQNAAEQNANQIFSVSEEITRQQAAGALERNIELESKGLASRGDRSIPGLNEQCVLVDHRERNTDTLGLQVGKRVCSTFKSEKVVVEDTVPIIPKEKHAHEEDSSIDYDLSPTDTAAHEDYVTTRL

[2] = microbe, parasite or virus in culture; assay type: functional; conditions: Mycobacterium tuberculosis
HEK293 [3] = experiment: NOD2 signaling inhibitors in MDP-stimulated cells, cell-based, uHTS, luminescence (AID 2001); assay type: functional; conditions: Homo sapiens
HEK293 [4] = experiment: inhibition of NOD1-driven NF-kB reporter – cell-based, luminescence, uHTS, primary screen (AID 1578); assay type: functional; conditions: Homo sapiens
[5] = Luminescence Cell-Based Dose Retest to Confirm Inhibitors of Cancer Stem Cells. [Related pubchem assays (depositor defined):AID2717, AID2721]; assay type: functional; conditions: Homo sapiens
HEK293 [6] = experiment: cells; assay type: functional, cell-based; conditions: Homo sapiens
[7] = biological target: Heat shock protein HSP 90-alpha (Homo sapiens, UniProt P07900); assay type: functional, organism-based
HEK293 [8] = experiment: cells; assay type: functional, cell-based; conditions: Homo sapiens; remark: listed apart in the source
Trypsin = Trypsin (Sus scrofa, UniProt P00761); experiment: trypsin protease activity blockade – biochemical, quenched peptide fluorescence, cherry-pick, selectivity assay for Rce1 protease inhibitor project, dose response (AID 488789)
CAAX prenyl protease 2 = biological target: T2, CAAX prenyl protease 2 (Homo sapiens, UniProt Q9Y256); experiment: inhibition of Ras-converting CAAX protease Rce1 – biochemical, yeast membranes, quenched-peptide fluorescence, cherry-pick, dose response (AID 588849)
T2 sequence (Q9Y256 whole entry): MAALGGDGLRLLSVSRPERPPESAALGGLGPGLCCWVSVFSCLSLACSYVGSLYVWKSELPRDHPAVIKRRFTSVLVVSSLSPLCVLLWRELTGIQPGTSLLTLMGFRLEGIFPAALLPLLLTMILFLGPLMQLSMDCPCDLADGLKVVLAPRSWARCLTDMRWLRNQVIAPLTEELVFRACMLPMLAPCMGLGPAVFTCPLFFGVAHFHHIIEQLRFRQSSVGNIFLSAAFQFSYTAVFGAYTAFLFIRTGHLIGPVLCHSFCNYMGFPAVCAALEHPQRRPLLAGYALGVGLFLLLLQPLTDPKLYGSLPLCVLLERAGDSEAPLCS

[9] = biological target: T3, Endoribonuclease toxin MazF (Escherichia coli K-12, UniProt P0AE70); experiment: activation of MazEF endoribonuclease cleavage – biochemical, fluorescence, single-stranded RNA substrate, uHTS hits, dose response (AID 588481); assay type: functional
T3 sequence (P0AE70 whole entry): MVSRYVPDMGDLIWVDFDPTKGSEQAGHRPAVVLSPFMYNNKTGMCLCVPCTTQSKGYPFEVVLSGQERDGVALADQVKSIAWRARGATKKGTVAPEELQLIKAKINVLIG

[10] = biological target: T3, Endoribonuclease toxin MazF; experiment: substrate-only fluorescence increase artefacts – biochemical, single-stranded RNase substrate, counter-screen for MazEF activator project, dose response (AID 588502); assay type: functional
cells [11] = experiment: cells
[12] = NIH3T3 cell viability loss – ATP luminescence, mouse fibroblasts, counter-screen, dose response (AID 2010); assay type: functional, cell-based;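 also: cells exposed to compound for about 90 hours before reading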
[13] = Trypanosoma cruzi growth suppression in host cells – NIH3T3 host cells, beta-gal luminescence, confirmation (AID 2044); assay type: functional, cell-based;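 also: intracellular parasites grown in NIH/3T3 mouse fibroblasts as host cells; luminescent beta-galactosidase reporter signal from transgenic T. cruzi replicating inside host cells; inhibitors lower the luminescence signal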
[14] = Luminescence Cell-Based Dose Confirmation HTS to Identify Activators of 5'UTR Stem-Loop Driven Alpha-Synuclein mRNA Translation in H4 Neuroglioblastoma Cells. [Related pubchem assays: 1829 (Project Summary), 1814 (Primary HTS)]; assay type: functional
Vero [15] = experiment: cells; assay type: functional, cell-based; conditions: Chlorocebus sabaeus
cells [16] = assay type: functional, cell-based
cells [17] = assay type: functional, cell-based; remark: listed apart in the source
Vero [18] = experiment: cells; assay type: functional; conditions: Chlorocebus sabaeus
[19] = Luminescence Cell-Based Dose Response HTS to Identify Activators of Luciferase Translation or Activity in H4 […] Cells. [Related pubchem assays: 1829 (Project Summary), 1814 (Primary HTS)]; assay type: functional
H4 = experiment: Luminescence Cell-Based Dose Response HTS to Identify Activators of 5'UTR Stem-Loop Driven Prion Protein mRNA Translation in H4 Neuroglioblastoma Cells. [Related pubchem assays: 1829 (Project Summary), 1814 (Primary HTS)]; assay type: functional; conditions: Homo sapiens
[20] = viability of uninfected HEp-2 cells – cell-based, HTS, cytotoxicity control for RSV inhibitor project, dose response (AID 2410); assay type: functional; conditions: human respiratory syncytial virus

Chain of Trypsin (P00761 whole entry): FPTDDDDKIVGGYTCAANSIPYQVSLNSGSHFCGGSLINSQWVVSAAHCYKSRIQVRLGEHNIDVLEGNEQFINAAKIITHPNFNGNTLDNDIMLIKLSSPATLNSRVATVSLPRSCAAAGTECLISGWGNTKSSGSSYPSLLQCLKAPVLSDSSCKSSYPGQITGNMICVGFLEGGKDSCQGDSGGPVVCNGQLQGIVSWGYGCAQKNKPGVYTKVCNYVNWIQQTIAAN

In the case of `O=C(Nc1nnc(-c2ccccc2Cl)o1)c1nc2ccccc2s1`, the EC50 [1] is reported as 4.73 µM (active) and the CC50 [2] is reported as > 40 µM (active).

In the case of `CCOC(=O)C(=Cc1ccc(-n2cncn2)cc1)C(=O)OCC`, the IC50 (HEK293 [3]) is reported as 10.9 µM (inactive), the EC50 (HEK293 [4]) is reported as > 20 µM (inactive) and the AC50 [5] is reported as 3.47 µM (active). The IC50 (HEK293 [6]) was 5.19 µM (active), the AC50 [7] was 7.37 µM (active) and the IC50 (HEK293 [8]) was > 20 µM (inactive).

With `Nc1ccccc1Oc1ccc2ccccc2c1` the AC50 (Trypsin) was 6.89 µM (active) and the AC50 (CAAX prenyl protease 2) was 5.84 µM (active).

With `Cc1ccc(S(=O)(=O)NN)c(C)c1N1CCCC1=O` the EC50 [9] was 58.2 µM (inactive) and the EC50 [10] was 10.6 µM (active).

With `CN(C)CCCN(C(=O)c1ccc(S(=O)(=O)N2CCOCC2)cc1)c1nc2ccc(F)cc2s1` the EC50 (cells [11]) was 0.02 µM (active), the EC50 [1] was 9.44 µM (active) and the EC50 [12] was > 30 µM (not active). The EC50 [13] was < 0.1 µM (active).

For `CCOC(=O)C(=Cc1ccc(OCc2ccc([N+](=O)[O-])cc2)c(OC)c1)C(=O)OCC`, the IC50 (HEK293 [3]) was 5.14 µM (active), the EC50 [14] was 0.171 µM (active) and the IC50 (Vero [15]) was > 25 µM (active). The EC50 (cells [16]) was > 350 µM (not active), the EC50 (HEK293 [4]) was 10.6 µM (active) and the AC50 [5] was 1.79 µM (active). The IC50 (HEK293 [6]) was 2.07 µM (active), the EC50 (cells [17]) was 70 µM (active) and the CC50 (Vero [18]) was 9.93 µM (active). For the same compound, the EC50 [19] was 1.18 µM (active), the IC50 (HEK293 [8]) was 12.8 µM (active) and the EC50 (H4) was 0.246 µM (active).

With `Cc1ccc([N+](=O)[O-])cc1N/C=C1\CCCCC1=O` the EC50 [9] was > 99 µM (inactive), the EC50 [10] was > 99 µM (inactive) and the CC50 [20] was 18.4 µM (active).
